According to US8183230B2, “Antimicrobial preservatives to achieve multi-dose formulation using beta-cyclodextrins for liquid dosage forms” (priority 2004, dated 2012):
“Also recorded” adds a separate entry of the source. Read-outs that look alike come from different tables or passages of the source.

Assays:
[1] = for IST: Study A, compound of Formula Ia at 10 mgA/mL
Experimental: Injection site toleration was measured by inspecting the patient for signs of reaction, including erythema (size); skin thickening (size), pain on palpation and edema. Table VI provides a detailed explanation of the scoring system: a score of 0 (no reaction) to 4 (severe reaction) was given for each characteristic and each injection site daily.
Compound of Formula Ia formulations were evaluated for injection site toleration (hereinafter “IST”).
Formulations were tested in groups of 4 dogs comprised of beagles and mongrels. […] Dogs were observed daily for evidence of reaction at the injection site and a score of 0-4 (see Table VI) was given for each of the following parameters: pain on injection, erythema, tissue thickening, pain on palpation and edema. Dogs were observed daily until day 5 (24 hours after the last dose).

[2] = tested on: Escherichia coli, Pseudomonas aeruginosa, Staphylococcus aureus, Candida albicans, Aspergillus niger; conditions: as indicated by literature; cited from earlier work
[3] = Stability measurements (accelerated stability); conditions: for ACCEPTABLE STABILITY: 10 mgA/mL compound of Formula Ia
Experimental: Stability Measurements. Potential lead formulations were evaluated under various accelerated stability conditions in order to assess potency and purity of compound of Formula Ia, preservative content and SBE-CD content. For example, in one accelerated stability study, potential lead formulations were placed in stability ovens to measure short-term thermal stability. […] Purity and potency assays to measure compound of Formula Ia, as well as antimicrobial preservatives and SBE-CD content, were performed using validated HPLC methodology. SBE-CD was assayed using GTP 5984.

[4] = tested on: Escherichia coli, Pseudomonas aeruginosa, Staphylococcus aureus, Candida albicans, Aspergillus niger; test: Hybrid USP/Ph. Eur. antimicrobial effectiveness test (AET); assay type: cell-based; conditions: for AET Results Ph. Eur. Criteria A: Study A, compound of Formula Ia at 10 mgA/mL, cells without ✓ print organism (time point); for Ph. Eur. criteria B: leads of Study B; for USP/Ph. Eur. requirements (initial results of preliminary screen): multidose compound of Formula Ia formulation with SBE-CD
Experimental: Preparation of Preserved Formulations. […] Antimicrobial preservatives with optimal activity at a pH outside the nominal formulation value (pH 4.4) were titrated to either 3.5 or 5.0 using 1 N HCl or 1 N NaOH. A stock solution of either 10% or 5% (weight/volume) SBE-CD containing 10 mgA/mL of the compound of Formula Ia citrate was prepared. Preservative was added to the respective formulation on a weight basis.
Antimicrobial Efficacy Testing. A hybrid USP […]/Ph. Eur. 2000 antimicrobial effectiveness test (AET) was performed, as follows: 20 mL of drug product was individually inoculated with 0.1-0.2 mL of bacterial or fungal culture, per USP/Ph. Eur. compendial requirements. The final concentration of organisms in the test sample was between 1×10^5 and 1×10^6 cfu/mL. At initial 6 hr, 24 hr, 7 day, 14 day, and 28 day time intervals, 1 mL of the inoculated product was transferred into 9 mL of a recovery diluent, that was validated to confirm neutralization of the antimicrobial preservative. One mL of the diluted sample was then transferred to a sterile petri dish and combined with 15-20 mL of an agar broth to culture the organisms. Plates were then incubated for 3 to 5 days, upon which colonies were counted. Initial organism contamination was then calculated based on dilution of the initial sample.
Generally, the USP test requirements are less stringent than Ph. Eur. requirements, which typically have an immediate bacteriocidal activity requirement. The Ph. Eur. requirements shown in Table III have either a “Criteria A” or “Criteria B” specification depending on the rate of microorganism reduction, with criteria A requiring an increased bacteriocidal rate. In order to meet the combined hybrid assay, the initial inoculum count of microorganisms needed to be reduced by the amounts listed in Table V.

[5] = compound of Formula Ia formulations solubilised with cyclodextrin
[6] = pH: 4.2, SBE-CD: 10%, preservative content 0.2%
[7] = preserved compound of Formula Ia/SBE-CD formulations
[8] = pH: 4.4, SBE-CD: 5%, ethanol 15%
[9] = pH: 4.4, SBE-CD: 10%, content: ethanol 15%, meta-cresol 0.3%, propylene glycol 50%, thimerosal 0.01

Q: For 2-hydroxypropyl-β-cyclodextrin, which injection site toleration [1, 5] is on record?
A: Its injection site toleration is “acceptable injection site toleration”.

Q: With `O=C(O)c1ccccc1` [Benzoic acid, Benzoic Acid] as the molecule, how does the IST [1, 6] read?
A: The IST was “Poor”.

Q: What about the pain on injection ([1]; preserved compound of Formula Ia formulation) of the same molecule?
A: The pain on injection was “moderate to severe pain on injection”.

Q: What about the injection site toleration [1, 7] of the same molecule?
A: The injection site toleration was “poor IST results”.

Q: And the “USP and Ph. Eur. criteria A or B requirements” value [2]?
A: The value was “met both the USP and either Ph. Eur. criteria A or B requirements”.

Q: And the loss of preservative ([3]; over 12 weeks at 70° C. storage)?
A: The loss of preservative was “no detectable loss”.

Q: And the “ACCEPTABLE STABILITY” value ([3]; pH 4.2, 10% SBE-CD)?
A: Its value is “✓”.

Q: What about the “AET Results Ph. Eur. Criteria A” value [4, 6] of the same molecule?
A: Its value is “c. alb (7 d); also recorded: s. aur (6, 24 hr)”.

Q: And the reducing the microorganisms ([4]; after 7 days)?
A: The reducing the microorganisms was “ineffective”.

Q: And the “Ph. Eur. criteria B” value [4]?
A: Its value is “met criteria B”.

Q: With `CCO` [Ethanol] as the molecule, how does the IST [1, 8] read?
A: Its IST is “Poor”.

Q: What about the IST [1, 9] of the same molecule?
A: The IST was “Poor”.

Q: What about the “USP and Ph. Eur. criteria A or B requirements” value [2] of the same molecule?
A: The value was “met both the USP and either Ph. Eur. criteria A or B requirements”.

Q: And the “ACCEPTABLE STABILITY” value ([3]; pH 4.4, 5% SBE-CD)?
A: The value was “✓”.

Q: What about the “AET Results Ph. Eur. Criteria A” value [4, 8] of the same molecule?
A: The value was “a. niger (7 d)”.

Q: And the “AET Results Ph. Eur. Criteria A” value [4, 9]?
A: The value was “s. aur (6 hr)”.

Q: What about the “USP/Ph. Eur. requirements (initial results of preliminary screen)” value [4] of the same molecule?
A: Its value is “satisfied USP/Ph. Eur. requirements”.

Q: Which results are given for `CC(O)CO` (stereo not shown) [Propylene glycol]?
A: USP and Ph. Eur. criteria A or B requirements [2]: met both the USP and either Ph. Eur. criteria A or B requirements; activity against the fungi [4]: ineffective against the fungi; USP/Ph. Eur. requirements (initial results of preliminary screen) [4]: satisfied USP/Ph. Eur. requirements; activity against bacteria ([4]; with and without SBE-CD): active against bacteria only in the presence of SBE-CD

Q: Which IST [1, 9] does the source give for `C[CH2][Hg][S]c1ccccc1C(=O)[O-].[Na+]` [Thimerosal] here?
A: The IST was “Good”.

Q: What about the injection site toleration [1, 7] of the same molecule?
A: Its injection site toleration is “good injection site toleration”.

Q: And the “USP and Ph. Eur. criteria A or B requirements” value [2]?
A: The value was “met both the USP and either Ph. Eur. criteria A or B requirements”.

Q: What about the “stability in the formulation (in words)” value [3] of the same molecule?
A: Its value is “commercially undesirable”.

Q: What about the Stability ([3]; Study A, pH: 4.4, SBE-CD: 10%, thimerosal 0.01, compound of Formula Ia at 10 mgA/mL) of the same molecule?
A: Its Stability is 1 wk/70.

Q: And the “preservative remained in the formulation” value ([3]; after 1 week at 70° C. storage)?
A: Its value is 30%.

Q: What about the loss of preservative ([3]; after 6 weeks, 70° C. storage) of the same molecule?
A: The loss of preservative was “complete loss”.

Q: And the “Ph. Eur. criteria B” value [4]?
A: Its value is “met criteria B”.

Q: What about the “USP/Ph. Eur. requirements (initial results of preliminary screen)” value [4] of the same molecule?
A: The value was “satisfied USP/Ph. Eur. requirements”.

Q: Which injection site toleration [1, 5] does the source give for Sulfobutylether-βcyclodextrin [SBE-CD] here?
A: Its injection site toleration is “acceptable injection site toleration”.
